Data as given in US11566007B2, “Ras inhibitors” (Revolution Medicines, Inc., priority 2019, dated 2023).
pEC50, pIC50: −log10 of the molar value. “And” between values parts separate entries of the source, which are not always exact repeats. Identical values can stand only once. Like-named read-outs stand apart in the source and are kept apart here.

Experiments:
NRAS G12C = NRAS G12C (Homo sapiens (Human), UniProt P01111+P62937, G12C); experiment: Ras-Raf (BRAF RBD) disruption / FRET / MOA assay, NRAS G12C; format: biochemical; conditions: read-out: IC50* NRAS G12C FRET data
Procedure: (§1) The purpose of this biochemical assay is to measure the ability of test compounds to facilitate ternary complex formation between a nucleotide-loaded Ras isoform and cyclophilin A; the resulting ternary complex disrupts binding to a BRAF^RBD construct, inhibiting Ras signaling through a RAF effector.
(§2) Compound is present in plate wells as a 10-point 3-fold dilution series starting at a final concentration of 30 μM. After incubation at 25° C. for 3 hours, a mixture of Anti-His Eu-W1024 and anti-GST allophycocyanin is then added to assay sample wells at final concentrations of 10 nM and 50 nM, respectively, and the reaction incubated for an additional 1.5 hours. […] Compounds that facilitate disruption of a Ras:RAF complex are identified as those eliciting a decrease in the TR-FRET ratio relative to DMSO control wells.
This protocol may also be executed substituting other Ras proteins or nucleotides. […]

KRAS G12D = KRAS G12D (Homo sapiens (Human), UniProt P01116+P62937, G12D); experiment: Ras-Raf (BRAF RBD) disruption / FRET / MOA assay, KRAS G12D; format: biochemical; conditions: Ras-Raf disruption/FRET/MOA assay; class symbols; read-out: KRAS G12D FRET data IC50
Method in brief: (§3)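 Compounds, top final concentration 30 μM in 10-point 3-fold series, incubated 3 hours at 25° C with nucleotide-loaded Ras, cyclophilin A and BRAF RBD.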

KRAS G12S = KRAS G12S (Homo sapiens (Human), UniProt P01116+P62937, G12S); experiment: Ras-Raf (BRAF RBD) disruption / FRET / MOA assay, KRAS G12S; format: biochemical; conditions: Ras-Raf disruption/FRET/MOA assay; class symbols; read-out: KRAS G12S FRET data IC50
Method in brief: as §3

K-Ras G12C = K-Ras G12C (Homo sapiens (Human), UniProt P01116+P62937, G12C); experiment: Ras-Raf (BRAF RBD) disruption / FRET / MOA assay, KRAS G12C; format: biochemical; conditions: KRAS G12C; Ras-Raf disruption/FRET/MOA assay; read-out: IC50* KRAS G12C FRET data
Procedure: as §1, §2
(§4) This protocol may also be executed substituting other Ras proteins or nucleotides.
(§5) The purpose of this biochemical assay was to measure the ability of test compounds to facilitate ternary complex formation between a nucleotide-loaded K-Ras isoform and Cyclophilin A; the resulting ternary complex disrupts binding to a BRAF^RBD construct, inhibiting K-Ras signaling through a RAF effector. Data is reported as IC50 values.
(§6) Compound was present in plate wells as a 10-point 3-fold dilution series starting at a final concentration of 30 μM. After incubation at 25° C. for 3 hours, a mixture of Anti-His Eu-W1024 and anti-GST allophycocyanin was then added to assay sample wells at final concentrations of 10 nM and 50 nM, respectively, and the reaction incubated for an additional 1.5 hours. […] Compounds that facilitate disruption of a K-Ras:RAF complex were identified as those eliciting a decrease in the TR-FRET ratio relative to DMSO control wells.

[1] = test system: NCI-H358 cells (K-Ras G12C); experiment: Potency assay: pERK in NCI-H358 cells; format: cell-based, human; conditions: H358 KRAS G12C, read-out: pERK EC50
Method in brief: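 Inhibition of cellular pERK after a 4 h treatment, detected by AlphaLISA or In-Cell Western. IC50 from a four-parameter concentration-response fit.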

NCI-H358 (K-Ras G12C) = experiment: CellTiter-Glo cell viability assay, NCI-H358; format: cell-based, human; conditions: NCI-H358, 5-day treatment, class symbols, read-out: Additional H358 Cell Viability assay data (K-Ras G12C, IC50)
Method in brief: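 Compounds were dispensed directly onto K-Ras mutant cells and incubated until day 5, then plates were equilibrated to room temperature for about 30 minutes before CellTiter-Glo luminescence. Signals were normalized as (sample/average DMSO)*100 and fitted by four-parameter logistic fit.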

KRAS G13D = KRAS G13D (Homo sapiens (Human), UniProt P01116+P62937, G13D); experiment: Ras-Raf (BRAF RBD) disruption / FRET / MOA assay, KRAS G13D; format: biochemical; conditions: read-out: IC50* KRAS G13D FRET data
Procedure: as §1, §2, §4, §5, §6

KRAS G12V = KRAS G12V (Homo sapiens (Human), UniProt P01116+P62937, G12V); experiment: Ras-Raf (BRAF RBD) disruption / FRET / MOA assay, KRAS G12V; format: biochemical; conditions: read-out: IC50* KRAS G12V FRET data
Procedure: as §1, §2, §4, §5, §6

KRAS WT = KRAS WT (Homo sapiens (Human), UniProt P01116+P62937); experiment: Ras-Raf (BRAF RBD) disruption / FRET / MOA assay, KRAS WT; format: biochemical; conditions: read-out: IC50* KRAS WT FRET data
Procedure: as §1, §2, §4, §5, §6

K-Ras G13C = K-Ras G13C (Homo sapiens (Human), UniProt P01116+P62937, G13C); experiment: Ras-Raf (BRAF RBD) disruption / FRET / MOA assay, KRAS G13C; format: biochemical; conditions: KRAS G13C; Ras-Raf disruption/FRET/MOA assay; read-out: IC50* KRAS G13C FRET data
Procedure: as §1, §2, §4, §5, §6

Sequence of KRAS WT (P01116-2 other isoform, or with tags, fused parts or gaps): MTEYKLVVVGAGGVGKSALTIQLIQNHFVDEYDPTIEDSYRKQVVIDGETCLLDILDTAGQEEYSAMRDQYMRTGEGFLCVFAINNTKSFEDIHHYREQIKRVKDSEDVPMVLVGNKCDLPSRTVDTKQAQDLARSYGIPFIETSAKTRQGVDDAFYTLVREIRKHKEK
Sequence of KRAS WT (P62937 whole entry): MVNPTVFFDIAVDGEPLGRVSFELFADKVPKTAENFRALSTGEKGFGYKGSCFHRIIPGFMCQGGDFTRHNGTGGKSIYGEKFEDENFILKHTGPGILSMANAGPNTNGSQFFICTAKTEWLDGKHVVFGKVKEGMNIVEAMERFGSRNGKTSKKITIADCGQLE
Sequence of NRAS G12C (P01111 whole entry G12C, canonical isoform): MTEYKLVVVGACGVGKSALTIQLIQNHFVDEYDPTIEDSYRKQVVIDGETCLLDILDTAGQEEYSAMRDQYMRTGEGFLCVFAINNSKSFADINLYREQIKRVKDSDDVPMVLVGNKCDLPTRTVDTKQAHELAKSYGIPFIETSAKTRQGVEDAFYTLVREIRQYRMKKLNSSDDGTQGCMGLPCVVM
Sequence of NRAS G12C (P62937 whole entry, canonical isoform): as the sequence (P62937 whole entry) above
Sequence of K-Ras G12C (P01116-2 other isoform, or with tags, fused parts or gaps G12C): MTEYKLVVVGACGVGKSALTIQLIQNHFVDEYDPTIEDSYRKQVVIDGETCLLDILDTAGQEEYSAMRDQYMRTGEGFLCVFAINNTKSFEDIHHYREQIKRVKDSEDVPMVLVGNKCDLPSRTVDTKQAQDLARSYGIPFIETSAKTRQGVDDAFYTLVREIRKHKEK
Sequence of K-Ras G12C (P62937 whole entry): as the sequence (P62937 whole entry) above
Sequence of KRAS G12S (P01116-2 other isoform, or with tags, fused parts or gaps G12S): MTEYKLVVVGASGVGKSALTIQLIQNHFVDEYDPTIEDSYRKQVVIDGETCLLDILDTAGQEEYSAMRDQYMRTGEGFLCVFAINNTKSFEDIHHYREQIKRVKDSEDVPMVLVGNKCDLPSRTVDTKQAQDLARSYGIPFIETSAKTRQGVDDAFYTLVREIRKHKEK
Sequence of KRAS G12S (P62937 whole entry): as the sequence (P62937 whole entry) above
Sequence of K-Ras G13C (P01116-2 other isoform, or with tags, fused parts or gaps G13C): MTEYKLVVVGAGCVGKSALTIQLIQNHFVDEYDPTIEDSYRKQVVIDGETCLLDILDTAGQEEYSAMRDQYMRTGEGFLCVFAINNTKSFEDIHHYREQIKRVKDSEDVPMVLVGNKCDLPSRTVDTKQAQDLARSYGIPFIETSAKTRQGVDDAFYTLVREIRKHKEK
Sequence of K-Ras G13C (P62937 whole entry): as the sequence (P62937 whole entry) above
Sequence of KRAS G12D (P01116-2 other isoform, or with tags, fused parts or gaps G12D): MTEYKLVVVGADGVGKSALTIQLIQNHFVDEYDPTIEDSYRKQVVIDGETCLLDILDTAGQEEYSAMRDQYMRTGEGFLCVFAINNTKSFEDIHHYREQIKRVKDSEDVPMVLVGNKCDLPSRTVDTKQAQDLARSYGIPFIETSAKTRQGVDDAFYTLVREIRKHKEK
Sequence of KRAS G12D (P62937 whole entry): as the sequence (P62937 whole entry) above
Sequence of KRAS G12V (P01116-2 other isoform, or with tags, fused parts or gaps G12V): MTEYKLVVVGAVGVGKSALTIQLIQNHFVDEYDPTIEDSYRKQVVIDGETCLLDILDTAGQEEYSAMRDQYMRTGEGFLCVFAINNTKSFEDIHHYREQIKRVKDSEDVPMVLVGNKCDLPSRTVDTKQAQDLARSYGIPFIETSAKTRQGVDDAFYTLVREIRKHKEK
Sequence of KRAS G12V (P62937 whole entry): as the sequence (P62937 whole entry) above
Sequence of KRAS G13D (P01116-2 other isoform, or with tags, fused parts or gaps G13D): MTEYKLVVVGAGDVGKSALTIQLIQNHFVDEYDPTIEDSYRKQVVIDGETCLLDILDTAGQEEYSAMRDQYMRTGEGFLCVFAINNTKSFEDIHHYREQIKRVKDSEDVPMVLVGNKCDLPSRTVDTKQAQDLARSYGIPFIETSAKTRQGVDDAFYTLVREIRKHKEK
Sequence of KRAS G13D (P62937 whole entry): as the sequence (P62937 whole entry) above

SMILES	pIC50 (NRAS G12C)	pIC50 (KRAS G12D)	pIC50 (KRAS G12S)	pIC50 (K-Ras G12C)	pEC50 [1]	pIC50 (NCI-H358 (K-Ras G12C))	pEC50 ([1]; Homo sapiens, NCI-H358)	pIC50 (KRAS G13D)	pIC50 (KRAS G12V)	pIC50 (KRAS WT)	pIC50 (K-Ras G13C)	pIC50 (NCI-H358 (K-Ras G12C); Homo sapiens, NCI-H358, 120 h)
CCn1c(-c2cccnc2[C@H](C)OC)c2c3cc(ccc31)-c1cc(O)cc(c1)C[C@H](NC(=O)[C@H](C(C)C)N(C)C(=O)[C@H]1CCN(C(=O)C#CC3(N(C)C)COC3)C1)C(=O)N1CCC[C@H](N1)C(=O)OCC(C)(C)C2 [Example A337]	> 8.00	5.00 to 6.00	6.00 to 7.00	> 8.00	> 5.30	> 8.00	–	–	–	–	–	–
C=CC(=O)N1CC[C@H](C(=O)N(C)[C@H](C(=O)N[C@H]2Cc3nc(cs3)-c3ccc4c(c3)c(c(-c3cc(C5=CCN(C)CC5)cnc3[C@H](C)OC)n4CC)CC(C)(C)COC(=O)[C@@H]3CCCN(N3)C2=O)C(C)C)C1 (atropisomer, axis not shown) [Example A521]	5.00 to 6.00	< 5.00	5.00 to 6.00	5.00 to 6.00	–	–	> 5.30	–	–	–	–	–
CCn1c(-c2cccnc2COC)c2c3cc(ccc31)-c1cc(O)cc(c1)C[C@H](NC(=O)[C@H](C(C)C)N(C)C(=O)[C@H]1CCN(C(=O)C#CCN3CCOCC3)C1)C(=O)N1CCC[C@H](N1)C(=O)OCC(C)(C)C2 [Example A095]	–	< 5.00	6.00 to 7.00	–	–	–	–	5.00 to 6.00	6.00 to 7.00	5.00 to 6.00	6.00 to 7.00	–
CCn1c(-c2cccnc2COC)c2c3cc(ccc31)-c1cc(C)cc(c1)C[C@H](NC(=O)[C@H](C(C)C)N(C)C(=O)[C@H]1CCN(C(=O)C#CCN(C)C)C1)C(=O)N1CCC[C@H](N1)C(=O)OCC(C)(C)C2 [Example A157]	> 8.00	5.00 to 6.00	< 5.00	> 8.00	> 5.30	–	–	–	–	–	6.00 to 7.00	–
C=CC(=O)N(C)CCCC(=O)N(C)[C@H](C(=O)N[C@H]1Cc2cc(O)cc(c2)-c2ccc3c(c2)c(c(-c2cccnc2COC)n3CC)CC(C)(C)COC(=O)[C@@H]2CCCN(N2)C1=O)C(C)C [Example A101]	–	5.00 to 6.00	6.00 to 7.00	6.00 to 7.00	–	–	> 5.30	–	6.00 to 7.00	6.00 to 7.00	6.00 to 7.00	6.00 to 7.00
CCn1c(-c2cccnc2[C@H](C)OC)c2c3cc(ccc31)-c1cc(O)cc(c1)C[C@H](NC(=O)[C@H](C(C)C)N(C)C(=O)[C@H]1CCN(C(=O)C#CC3(N(C)C)COC3)C1)C(=O)N1CCC[C@H](N1)C(=O)OCC(C)(C)C2 [Example A246]	–	5.00 to 6.00	6.00 to 7.00	–	–	–	> 5.30	6.00 to 7.00	6.00 to 7.00	6.00 to 7.00	7.00 to 8.00	> 8.00
CCn1c(-c2ccccc2CCOC)c2c3cc(ccc31)-c1cc(O)cc(c1)C[C@H](NC(=O)[C@H](C(C)C)N(C)C(=O)c1ccc(NC(=O)/C=C/CN(C)C)nc1)C(=O)N1CCC[C@H](N1)C(=O)OCC(C)(C)C2 [Example A218]	–	5.00 to 6.00	< 5.00	6.00 to 7.00 and 5.00 to 6.00	–	–	> 5.30	–	5.00 to 6.00 and < 5.00	< 5.00	7.00 to 8.00 and 6.00 to 7.00	< 6.00
C=CC(=O)Nc1cnc(C(=O)N(C)[C@H](C(=O)N[C@H]2Cc3cc(O)cc(c3)-c3ccc4c(c3)c(c(-c3cccnc3[C@H](C)OC)n4CC)CC(C)(C)COC(=O)[C@@H]3CCCN(N3)C2=O)C(C)C)n1C [Example A334]	> 8.00 and 7.00 to 8.00	6.00 to 7.00	7.00 to 8.00	> 8.00 and 7.00 to 8.00	–	> 8.00	> 5.30	–	6.00 to 7.00 and 7.00 to 8.00	6.00 to 7.00 and 7.00 to 8.00	7.00 to 8.00 and > 8.00	–
CCn1c(-c2ccccc2CCOC)c2c3cc(ccc31)-c1cc(O)cc(c1)C[C@H](NC(=O)[C@H](C(C)C)N(C)C(=O)c1ccc(NC(=O)/C=C/CN(C)C)cn1)C(=O)N1CCC[C@H](N1)C(=O)OCC(C)(C)C2 [Example A224]	–	5.00 to 6.00	< 5.00	6.00 to 7.00 and 5.00 to 6.00	–	–	> 5.30	–	5.00 to 6.00 and < 5.00	< 5.00	7.00 to 8.00 and 6.00 to 7.00	< 6.00
C=CC(=O)N1CC[C@H](C(=O)N(C)[C@H](C(=O)N[C@H]2Cc3cc(O)cc(c3)-c3ccc4c(c3)c(c(-c3ccccc3CCN3CCCC3)n4CC)CC(C)(C)COC(=O)[C@@H]3CCCN(N3)C2=O)C(C)C)C1 [Example A100]	–	< 5.00	< 5.00	5.00 to 6.00	–	–	> 5.30	–	< 5.00	< 5.00	< 5.00	6.00 to 7.00
CCn1c(-c2cccnc2[C@H](C)OC)c2c3cc(ccc31)-c1cccc(c1)C[C@H](NC(=O)[C@H](C(C)C)N(C)C(=O)[C@H]1CCN(C(=O)/C=C/CN3CC(OC)C3)C1)C(=O)N1CCC[C@H](N1)C(=O)OCC(C)(C)C2 (atropisomer, axis not shown) [Example A204]	7.00 to 8.00	< 5.00	5.00 to 6.00	7.00 to 8.00	–	–	> 5.30	–	5.00 to 6.00	5.00 to 6.00	5.00 to 6.00	–
C=CC(=O)N1CCC(C(=O)N(C)[C@H](C(=O)N[C@H]2CCC(=O)N(C)Cc3ccc4c(c3)c(c(-c3cccnc3[C@H](C)OC)n4CC)CC(C)(C)COC(=O)[C@@H]3CCCN(N3)C2=O)C(C)C)C1 (atropisomer, axis not shown) [Example A500]	< 5.00	< 5.00	< 5.00	–	–	–	–	–	< 5.00	< 5.00	< 5.00	< 6.00
